Results on four molecules are retold here after patent publication US20260137677A1, “PROTACS USEFUL AGAINST THE MAIN PROTEASE SARS-COV-2” (Tocris Cookson Limited, priority 2022, published 2026).

The target in experiment [1] is T1, recombinant SARS-CoV-2 main protease (Mpro) (Severe acute respiratory syndrome coronavirus 2, UniProt P0DTD1).
T1 construct: the main protease (Mpro; also called 3CLpro) which has an essential role in processing the polyproteins
The experiment can be described thus: biochemical. Conditions: FRET assay, Mpro 50 nM, substrate 10 μM.

Experiment [2] has as its system SARS-CoV-2 (SARS-CoV2/ZG/297-20) in Vero E6 cells. The experiment is described as follows: microbe, parasite or virus in culture. The format is cell-based. Conditions: for inhibition at 10 µM / inhibition at 50 µM: Severe acute respiratory syndrome coronavirus 2, Vero C1008, 72 h; for inhibition at 10 µM: read-out: Antiviral Activity 10 uM; for inhibition at 50 µM: read-out: Antiviral Activity 50 uM.

Experiment [3] shares this test system. The experiment is described as follows: Plaque reduction assay in Vero E6 cells. The format is cell-based.

In general, IC50 refers to the concentration needed to halve the response being measured. Broadly, the EC50 is the concentration giving half of the maximal effect.

SMILES strings stand for the structures. Where two headings read alike, the source gives them in different places. A value given as a limit tells only on which side of the number the result lay.

Regarding `O=C1CCC(N2C(=O)c3cccc(OCCCCCCCCC(=O)Nc4cccn([C@@H](CC5CC5)C(=O)N[C@@H](C[C@@H]5CCNC5=O)C(=O)C(=O)NCc5ccccc5)c4=O)c3C2=O)C(=O)N1` (stereo partly drawn) [BT153, N-(1-((S)-1-(((S)-4-(benzylamino)-3,4-dioxo-1-((S)-2-oxopyrrolidin-3-yl)butan-2-yl)amino)-3-cyclopropyl-1-oxopropan-2-yl)-2-oxo-1,2-dihydropyridin-3-yl)-9-((2-(2,6-dioxopiperidin-3-yl)-1,3-dioxoisoindolin-4-yl)oxy)nonanamide], the IC50 in experiment [1] was < 100 nM. Besides, in experiment [2], the inhibition at 10 µM is < 75% and the inhibition at 50 µM was < 75%. Moreover, the EC50 in experiment [2] (Severe acute respiratory syndrome coronavirus 2, Vero C1008, read-out: EC50 in antiviral assay) is 3200 nM. Moreover, in experiment [3], the “reduction of viable virus in plaque reduction assay (in words)” value was “efficient reduction of viable virus”.

`O=C1CCC(N2C(=O)c3cccc(OCCCCCCCCNC(=O)c4ccc5cncc(N6C(=O)NC7(CC(c8ccccc8Cl)C7)C6=O)c5c4)c3C2=O)C(=O)N1` (stereo not shown) [Compound C10778N, 4-(2-(2-chlorophenyl)-6,8-dioxo-5,7-diazaspiro[3.4]octan-7-yl)-N-(8-((2-(2,6-dioxopiperidin-3-yl)-1,3-dioxoisoindolin-4-yl)oxy)octyl)isoquinoline-6-carboxamide]: the IC50 in experiment [1] is < 100 nM. Also, in experiment [2], the inhibition at 10 µM is < 75% and the inhibition at 50 µM was > 75%. The EC50 in experiment [2] (Severe acute respiratory syndrome coronavirus 2, Vero C1008, Vero E6 infected with SARS-CoV-2 at an MOI of 0.05, read-out: EC50 in antiviral assay) is 1700 nM. For the same molecule, the “reduction of viable virus in plaque reduction assay (in words)” value in experiment [3] is listed as “efficiently reduces viable virus”.

With `O=C1CCC(N2C(=O)c3cccc(OCCCCCCNC(=O)c4ccc5cncc(N6C(=O)NC7(CC(c8ccccc8Cl)C7)C6=O)c5c4)c3C2=O)C(=O)N1` (stereo not shown) [Compound C10778L, 4-(2-(2-chlorophenyl)-6,8-dioxo-5,7-diazaspiro[3.4]octan-7-yl)-N-(6-((2-(2,6-dioxopiperidin-3-yl)-1,3-dioxoisoindolin-4-yl)oxy)hexyl)isoquinoline-6-carboxamide], the IC50 in experiment [1] was < 100 nM. Besides, in experiment [2], the inhibition at 10 µM is < 25% and the inhibition at 50 µM is < 25%.

For the molecule `O=C1CCC(N2C(=O)c3cccc(NCCCNC(=O)[C@@H](NC(=O)[C@@H](c4cccnc4)N(C(=O)c4ccco4)c4ccc(-c5ccccc5)cc4)c4ccccc4)c3C2=O)C(=O)N1` (single isomer, unassigned) [TS450F1], the IC50 in experiment [1] was < 1000 nM. In experiment [2], the inhibition at 10 µM was < 0% and the inhibition at 50 µM is < 0%.
